System: MV-4-11 cells
Assay: Gene expression microarray analysis (Affymetrix PrimeView) and GSEA
Format: cell-based, human
Design: RFU PODN (11730768_x_at) / Fold change /veh PODN (11730768_x_at) / RFU LINC00158 (11744669_a_at) / Fold change /veh LINC00158 (11744669_a_at) / RFU DUSP10 (11751237_a_at) / Fold change /veh DUSP10 (11751237_a_at) / RFU ID3 (11757404_x_at) / Fold change /veh ID3 (11757404_x_at) / RFU PLEKHG5 (11737974_s_at) / Fold change /veh PLEKHG5 (11737974_s_at) / RFU LRRC4B (11730491_at) / Fold change /veh LRRC4B (11730491_at) / RFU GIMAP4 (11747438_a_at) / Fold change /veh GIMAP4 (11747438_a_at) / RFU KRT8 (11758183_x_at) / Fold change /veh KRT8 (11758183_x_at) / RFU CNN1 (11734310_a_at) / Fold change /veh CNN1 (11734310_a_at) / RFU VPS37D (11726825_at) / Fold change /veh VPS37D (11726825_at) / RFU C10orf10 (11716522_x_at) / Fold change /veh C10orf10 (11716522_x_at) / RFU KIR2DL2 /// KIR2DL4 /// KIR2DL5A /// KIR2DL5B /// KIR2DS1 /// KIR2DS2 /// KIR2DS3 /// KIR2DS4 /// KIR3DL3 /// KIR3DL3 /// KIR3DS1 (11738374_at) / Fold change /veh KIR2DL2 /// KIR2DL4 /// KIR2DL5A /// KIR2DL5B /// KIR2DS1 /// KIR2DS2 /// KIR2DS3 /// KIR2DS4 /// KIR3DL3 /// KIR3DL3 /// KIR3DS1 (11738374_at) / RFU C1QL1 (11718748_at) / Fold change /veh C1QL1 (11718748_at) / RFU TMPRSS4 (11747572_a_at) / Fold change /veh TMPRSS4 (11747572_a_at) / RFU HAMP (11756126_x_at) / Fold change /veh HAMP (11756126_x_at) / RFU RNFT2 (11725882_a_at) / Fold change /veh RNFT2 (11725882_a_at) / RFU NR4A2 (11747474_a_at) / Fold change /veh NR4A2 (11747474_a_at) / RFU ABCC12 (11746883_a_at) / Fold change /veh ABCC12 (11746883_a_at) / RFU TMEM136 (11760407_x_at) / Fold change /veh TMEM136 (11760407_x_at) / RFU CLDN22 /// WWC2 (11732394_at) / Fold change /veh CLDN22 /// WWC2 (11732394_at) / RFU HLA-DPB1 (11760878_x_at) / Fold change /veh HLA-DPB1 (11760878_x_at) / RFU SPINT1 (11716480_a_at) / Fold change /veh SPINT1 (11716480_a_at) / RFU GAP43 (11754022_s_at) / Fold change /veh GAP43 (11754022_s_at) / RFU A4GNT (11735810_at) / Fold change /veh A4GNT (11735810_at) / RFU PRB3 (11715151_x_at) / Fold change /veh PRB3 (11715151_x_at) / RFU TUBB4B (11761932_at) / Fold change /veh TUBB4B (11761932_at) / RFU CAPN14 (11732068_a_at) / Fold change /veh CAPN14 (11732068_a_at) / RFU TMCC2 (11721928_a_at) / Fold change /veh TMCC2 (11721928_a_at) / RFU IRGQ (11745062_a_at) / Fold change /veh IRGQ (11745062_a_at) / RFU FAM174B (11720279_a_at) / Fold change /veh FAM174B (11720279_a_at) / RFU TMPRSS4 (11748680_a_at) / Fold change /veh TMPRSS4 (11748680_a_at) / RFU FAM212B (11763350_a_at) / Fold change /veh FAM212B (11763350_a_at) / RFU PLEKHG5 (11743358_a_at) / Fold change /veh PLEKHG5 (11743358_a_at) / RFU ZSCAN30 (11745921_a_at) / Fold change /veh ZSCAN30 (11745921_a_at) / RFU CMKLR1 (11741424_a_at) / Fold change /veh CMKLR1 (11741424_a_at) / RFU LOC101060620 /// MAPK8IP1 (11723275_at) / Fold change /veh LOC101060620 /// MAPK8IP1 (11723275_at) / RFU SPTSSB (11747773_x_at) / Fold change /veh SPTSSB (11747773_x_at) / RFU PRSS12 (11739890_at) / Fold change /veh PRSS12 (11739890_at) / RFU BIN1 (11741810_x_at) / Fold change /veh BIN1 (11741810_x_at) / RFU WNT11 (11732464_a_at) / Fold change /veh WNT11 (11732464_a_at) / RFU C10orf10 (11716521_a_at) / Fold change /veh C10orf10 (11716521_a_at) / RFU C5orf56 (11738089_at) / Fold change /veh C5orf56 (11738089_at) / RFU CYB561 (11721691_x_at) / Fold change /veh CYB561 (11721691_x_at) / RFU ANKRD19P (11752326_a_at) / Fold change /veh ANKRD19P (11752326_a_at) / RFU OR2T12 /// OR2T33 /// OR2T8 (11738714_s_at) / Fold change /veh OR2T12 /// OR2T33 /// OR2T8 (11738714_s_at) / RFU VCAN (11748164_a_at) / Fold change /veh VCAN (11748164_a_at) / RFU JSRP1 (11732532_at) / Fold change /veh JSRP1 (11732532_at) / RFU KRTAP10-11 (11738290_x_at) / Fold change /veh KRTAP10-11 (11738290_x_at) / RFU MYO3A (11730013_a_at) / Fold change /veh MYO3A (11730013_a_at) / RFU EBF3 (11725865_a_at) / Fold change /veh EBF3 (11725865_a_at) / RFU CAMK2N1 (11719241_x_at) / Fold change /veh CAMK2N1 (11719241_x_at) / RFU C5orf56 (11738088_a_at) / Fold change /veh C5orf56 (11738088_a_at) / RFU OLFML3 (11715873_a_at) / Fold change /veh OLFML3 (11715873_a_at) / RFU LOC100653217 /// NTM (11731650_a_at) / Fold change /veh LOC100653217 /// NTM (11731650_a_at) / RFU MAPK11 (11762145_a_at) / Fold change /veh MAPK11 (11762145_a_at) / RFU FIZ1 (11724087_x_at) / Fold change /veh FIZ1 (11724087_x_at) / RFU OASL (11726364_x_at) / Fold change /veh OASL (11726364_x_at) / RFU SOX15 (11748057_x_at) / Fold change /veh SOX15 (11748057_x_at) / RFU CD79A (11719716_a_at) / Fold change /veh CD79A (11719716_a_at) / RFU HIST1H1D (11736915_at) / Fold change /veh HIST1H1D (11736915_at) / RFU CASKIN2 (11723855_a_at) / Fold change /veh CASKIN2 (11723855_a_at) / RFU LOC730098 (11760151_x_at) / Fold change /veh LOC730098 (11760151_x_at) / RFU OR4N2 (11742367_at) / Fold change /veh OR4N2 (11742367_at) / RFU PRRT2 (11749266_a_at) / Fold change /veh PRRT2 (11749266_a_at) / RFU SNX32 (11753110_a_at) / Fold change /veh SNX32 (11753110_a_at) / RFU CDHR5 (11726645_a_at) / Fold change /veh CDHR5 (11726645_a_at) / RFU RCAN1 (11760418_a_at) / Fold change /veh RCAN1 (11760418_a_at) / RFU FAM167A (11723789_a_at) / Fold change /veh FAM167A (11723789_a_at) / RFU FAM26E (11764081_at) / Fold change /veh FAM26E (11764081_at) / RFU ISYNA1 (11749810_s_at) / Fold change /veh ISYNA1 (11749810_s_at) / RFU ACY1 (11761880_at) / Fold change /veh ACY1 (11761880_at) / RFU 11764098_at / Fold change /veh 11764098_at / RFU SAMD14 (11745864_x_at) / Fold change /veh SAMD14 (11745864_x_at) / RFU NPB (11741838_a_at) / Fold change /veh NPB (11741838_a_at) / RFU TMPRSS6 (11731388_a_at) / Fold change /veh TMPRSS6 (11731388_a_at) / RFU KRTAP10-2 (11738614_at) / Fold change /veh KRTAP10-2 (11738614_at) / RFU ARHGAP8 /// PRR5-ARHGAP8 (11727945_x_at) / Fold change /veh ARHGAP8 /// PRR5-ARHGAP8 (11727945_x_at) / RFU KRTAP5-7 /// NADSYN1 (11734609_at) / Fold change /veh KRTAP5-7 /// NADSYN1 (11734609_at) / RFU RASL12 (11751679_a_at) / Fold change /veh RASL12 (11751679_a_at) / RFU CDKN2B (11736163_a_at) / Fold change /veh CDKN2B (11736163_a_at) / RFU PRF1 (11729649_at) / Fold change /veh PRF1 (11729649_at) / RFU, ZNF638 /// ZNF638-IT1 / Fold change vs veh, ZNF638 /// ZNF638-IT1 / RFU, PANK3 / Fold change vs veh, PANK3 / RFU, SH3YL1 / Fold change vs veh, SH3YL1 / RFU, ZEB2 / Fold change vs veh, ZEB2 / RFU, NRIP1 / Fold change vs veh, NRIP1 / RFU, PTTG1IP / Fold change vs veh, PTTG1IP / RFU, CAPN2 / Fold change vs veh, CAPN2 / RFU, MED14 / Fold change vs veh, MED14 / RFU, SNORA58 / Fold change vs veh, SNORA58 / RFU, C1orf63 / Fold change vs veh, C1orf63 / RFU, LRRFIP1 / Fold change vs veh, LRRFIP1 / RFU, NDUFAF7 / Fold change vs veh, NDUFAF7 / RFU, SLC12A2 / Fold change vs veh, SLC12A2 / RFU, IBTK / Fold change vs veh, IBTK / RFU, ESF1 / Fold change vs veh, ESF1 / Fold change vs veh, TMEM50B / RFU, TAOK1 / Fold change vs veh, TAOK1 / RFU, ACBD3 / Fold change vs veh, ACBD3 / RFU, TMA16 / Fold change vs veh, TMA16 / RFU, RWDD3 / Fold change vs veh, RWDD3 / RFU, BCAT1 / Fold change vs veh, BCAT1 / RFU, EDEM3 / Fold change vs veh, EDEM3 / RFU, TMEM33 / Fold change vs veh, TMEM33 / RFU, WDR75 / Fold change vs veh, WDR75 / RFU, AHCTF1 / Fold change vs veh, AHCTF1 / RFU, TFRC / Fold change vs veh, TFRC / RFU, ZDHHC17 / Fold change vs veh, ZDHHC17 / RFU, NOM1 / Fold change vs veh, NOM1 / RFU, ARL8B / Fold change vs veh, ARL8B / RFU, ZBTB11 / Fold change vs veh, ZBTB11 / RFU, TAMM41 / Fold change vs veh, TAMM41 / RFU, KIAA1704 /// LOC100996395 / Fold change vs veh, KIAA1704 /// LOC100996395 / RFU, ING1 / Fold change vs veh, ING1 / RFU, TRMT61B / Fold change vs veh, TRMT61B / RFU, FUBP3 / Fold change vs veh, FUBP3 / RFU, TP53 / Fold change vs veh, TP53 / RFU, TNKS2 / Fold change vs veh, TNKS2 / RFU, ZFP14 / Fold change vs veh, ZFP14 / RFU, ACTR2 / Fold change vs veh, ACTR2 / RFU, PPP3R1 / Fold change vs veh, PPP3R1 / RFU, PIK3R1 / Fold change vs veh, PIK3R1 / RFU, HNRNPA1 / Fold change vs veh, HNRNPA1 / RFU, RNF170 / Fold change vs veh, RNF170 / RFU, ZNF28 / Fold change vs veh, ZNF28 / RFU, RNGTT / Fold change vs veh, RNGTT / RFU, OGT / Fold change vs veh, OGT / RFU, BRD1 / Fold change vs veh, BRD1 / RFU, MARS / Fold change vs veh, MARS / RFU, ZNF655 / Fold change vs veh, ZNF655 / RFU, FAHD1 / Fold change vs veh, FAHD1 / RFU, BDP1 / Fold change vs veh, BDP1 / RFU, LRRCC1 / Fold change vs veh, LRRCC1 / RFU, ARID1A / Fold change vs veh, ARID1A / RFU, ZNF146 / Fold change vs veh, ZNF146 / RFU, ZNF330 / Fold change vs veh, ZNF330 / RFU, GPN3 / Fold change vs veh, GPN3 / RFU, C9orf123 / Fold change vs veh, C9orf123 / RFU, N4BP2L2 / Fold change vs veh, N4BP2L2 / RFU, ARFIP1 / Fold change vs veh, ARFIP1 / RFU, FAM179B / Fold change vs veh, FAM179B / RFU, BCL10 / Fold change vs veh, BCL10 / RFU, UHRF1BP1L / Fold change vs veh, UHRF1BP1L / RFU, BET1 / Fold change vs veh, BET1 / RFU, CNOT2 / Fold change vs veh, CNOT2 / RFU, ZNF268 / Fold change vs veh, ZNF268 / Fold change vs veh, ZNF507 / RFU, DGCR2 / Fold change vs veh, DGCR2 / RFU, WDSUB1 / Fold change vs veh, WDSUB1 / Fold change vs veh, HSP90B1 /// MIR3652 / RFU, ADSS / Fold change vs veh, ADSS / RFU, GK / Fold change vs veh, GK / RFU, ZNF148 / Fold change vs veh, ZNF148 / RFU, TAF9 / Fold change vs veh, TAF9 / RFU, SLC1A5 / Fold change vs veh, SLC1A5 / RFU, SLMO2 / Fold change vs veh, SLMO2 / RFU, ABCC4 / Fold change vs veh, ABCC4 / RFU, LOC101060439 /// RAP1B / Fold change vs veh, LOC101060439 /// RAP1B / RFU, RFX7 / Fold change vs veh, RFX7 / RFU, GTPBP10 / Fold change vs veh, GTPBP10 / RFU, CNEP1R1 / Fold change vs veh, CNEP1R1 / RFU, BIVM-ERCC5 /// ERCC5 / Fold change vs veh, BIVM-ERCC5 /// ERCC5 / RFU, ILF3 / Fold change vs veh, ILF3 / RFU 11762660_at / Fold change /veh 11762660_at / RFU VCAN (11757783_s_at) / Fold change /veh VCAN (11757783_s_at) / RFU DDX43 (11728927_at) / Fold change /veh DDX43 (11728927_at) / RFU KRT8 (11758188_x_at) / Fold change /veh KRT8 (11758188_x_at) / RFU NKD1 (11759106_at) / Fold change /veh NKD1 (11759106_at) / RFU SRD5A1 (11742802_a_at) / Fold change /veh SRD5A1 (11742802_a_at) / RFU TPSAB1 /// TPSB2 (11721975_s_at) / Fold change /veh TPSAB1 /// TPSB2 (11721975_s_at) / RFU GSTM3 (11746129_a_at) / Fold change /veh GSTM3 (11746129_a_at) / RFU IL23R (11737362_x_at) / Fold change /veh IL23R (11737362_x_at) / RFU TMEM51 (11727254_a_at) / Fold change /veh TMEM51 (11727254_a_at) / RFU PIWIL2 (11732686_x_at) / Fold change /veh PIWIL2 (11732686_x_at) / RFU ORM1 (11744905_x_at) / Fold change /veh ORM1 (11744905_x_at) / RFU CCDC152 (11743942_at) / Fold change /veh CCDC152 (11743942_at) / RFU ECM1 (11717891_a_at) / Fold change /veh ECM1 (11717891_a_at) / RFU IL23R (11748794_a_at) / Fold change /veh IL23R (11748794_a_at) / RFU TNFAIP8L3 (11732012_x_at) / Fold change /veh TNFAIP8L3 (11732012_x_at) / RFU MBOAT4 (11741988_at) / Fold change /veh MBOAT4 (11741988_at) / RFU 11764193_at / Fold change /veh 11764193_at / RFU TMEM53 (11763286_at) / Fold change /veh TMEM53 (11763286_at) / RFU MAGEB2 (11727129_at) / Fold change /veh MAGEB2 (11727129_at) / RFU TMEM200A (11744735_a_at) / Fold change /veh TMEM200A (11744735_a_at) / RFU CCDC152 (11751479_a_at) / Fold change /veh CCDC152 (11751479_a_at) / RFU FAM211A (11726209_a_at) / Fold change /veh FAM211A (11726209_a_at) / RFU RGS16 (11746705_a_at) / Fold change /veh RGS16 (11746705_a_at) / RFU VCAN (11755009_s_at) / Fold change /veh VCAN (11755009_s_at) / RFU RHOB (11743442_s_at) / Fold change /veh RHOB (11743442_s_at) / RFU RGS16 (11720943_a_at) / Fold change /veh RGS16 (11720943_a_at) / RFU RGS16 (11720944_at) / Fold change /veh RGS16 (11720944_at) / RFU, VPS4B / Fold change vs veh, VPS4B / RFU, CREB1 / Fold change vs veh, CREB1 / RFU, DNAJC13 / Fold change vs veh, DNAJC13 / RFU, GNAQ / Fold change vs veh, GNAQ / RFU, CDK5R1 / Fold change vs veh, CDK5R1 / RFU, ZRANB3 / Fold change vs veh, ZRANB3 / RFU, CUL4A / Fold change vs veh, CUL4A / RFU, CCNY / Fold change vs veh, CCNY / RFU, UFL1 / Fold change vs veh, UFL1 / RFU, COG3 / Fold change vs veh, COG3 / RFU, DIAPH2 / Fold change vs veh, DIAPH2 / RFU, SKA2 / Fold change vs veh, SKA2 / RFU, AFF3 / Fold change vs veh, AFF3 / RFU, LMF1 / Fold change vs veh, LMF1 / RFU, IPO11 / Fold change vs veh, IPO11 / RFU, DFFB / Fold change vs veh, DFFB / RFU, FOXP1 / Fold change vs veh, FOXP1 / RFU, CARD8 / Fold change vs veh, CARD8 / RFU, STRN3 / Fold change vs veh, STRN3 / RFU, ADK / Fold change vs veh, ADK / RFU, RASSF2 / Fold change vs veh, RASSF2 / RFU, WIPF1 / Fold change vs veh, WIPF1 / RFU, LARP1B / Fold change vs veh, LARP1B / RFU, RASA1 / Fold change vs veh, RASA1 / RFU, RB1 / Fold change vs veh, RB1 / RFU, PPFIA1 / Fold change vs veh, PPFIA1 / RFU, MAT2A / Fold change vs veh, MAT2A / RFU, CCT5 / Fold change vs veh, CCT5 / RFU, WDR92 / Fold change vs veh, WDR92 / RFU, CUX1 / Fold change vs veh, CUX1 / RFU, TTC7A / Fold change vs veh, TTC7A / RFU, TMEM135 / Fold change vs veh, TMEM135 / RFU, DEPTOR / Fold change vs veh, DEPTOR / RFU, CPM / Fold change vs veh, CPM / RFU, DNAJB6 / Fold change vs veh, DNAJB6 / RFU, CACNA2D3 / Fold change vs veh, CACNA2D3 / RFU, DTX4 / Fold change vs veh, DTX4 / RFU, TFCP2 / Fold change vs veh, TFCP2 / RFU, GMCL1 /// GMCL1P1 / Fold change vs veh, GMCL1 /// GMCL1P1 / RFU, AEBP2 / Fold change vs veh, AEBP2 / RFU, SNHG1 /// SNORD22 /// SNORD25 /// SNORD26 /// SNORD27 /// SNORD28 /// SNORD29 /// SNORD31 / Fold change vs veh, SNHG1 /// SNORD22 /// SNORD25 /// SNORD26 /// SNORD27 /// SNORD28 /// SNORD29 /// SNORD31 / Fold change (Aza/veh), C12orf56 (ProbeSet 11735607_a_at) / Fold change (ACY-1035/veh), C12orf56 (ProbeSet 11735607_a_at) / Fold change (Aza/veh), FGFR1OP (ProbeSet 11751329_s_at) / Fold change (ACY-1035/veh), FGFR1OP (ProbeSet 11751329_s_at) / Fold change (Aza/veh), VPS36 (ProbeSet 11739960_a_at) / Fold change (ACY-1035/veh), VPS36 (ProbeSet 11739960_a_at) / RFU SYPL1 (11715823_x_at) / Fold change /veh SYPL1 (11715823_x_at) / RFU IGFBP7 (11715501_s_at) / Fold change /veh IGFBP7 (11715501_s_at) / RFU REEP3 (11722064_at) / Fold change /veh REEP3 (11722064_at) / RFU IGLL1 (11728026_x_at) / Fold change /veh IGLL1 (11728026_x_at): dose or concentration left out as unconfirmed
Conditions: MV-4-11 cells, 48 hours

Nc1ncn([C@@H]2O[C@H](CO)[C@@H](O)[C@H]2O)c(=O)n1 [azacitidine]
RFU IL23R (11737362_x_at): 11.80 RFU

— PMC5218480 (PLoS ONE, 2017)
